Reference: patent publication US10131744B2, “Antimicrobial polyamide compositions and mastitis treatment” (priority 2013, dated 2018)
In brackets after ≈: the same amount, converted by molar mass. Where two headings read alike, the source gives them in different places.

How the values were obtained:
[1] = test system: Staphylococcus aureus (including MRSA); assay: MIC in broth against Staphylococcus aureus (including MRSA); assay type: cell-based; parameters: MIC against Staphylococcus aureus including MRSA: unit: μg/mL
Experimental: (§1) The antimicrobial efficacy of twenty-five antimicrobial polymers (and Erythromycin) was evaluated using an MIC assay. For each study, a doubling dilution concentration of each antimicrobial polymer was prepared at 2× the final concentration range (0.12 to 16 μg/mL), and 100 μL of the API-null formulation was dispensed into the negative control wells. Overall, the antimicrobial polymer-containing compositions performed comparably well, or better, against the pathogens, as compared to Erythromycin (ERY).

[2] = test system: Histophilus somni; assay: MIC in broth against Histophilus somni; assay type: cell-based
Experimental: as §1

[3] = test system: Serratia marcescens; assay: MIC in broth against Serratia marcescens; assay type: cell-based; parameters: unit not given beside the values
Experimental: as §1

[4] = test system: Mannheimia haemolytica; assay: MIC in broth against Mannheimia haemolytica; assay type: cell-based
Experimental: as §1

[5] = test system: E. faecalis (Str-15) ATCC 29212; settings: cited from earlier work
[6] = test system: Streptococcus uberis; assay: MIC in broth against Streptococcus uberis; assay type: cell-based
Experimental: as §1

[7] = test system: Pasteurella multocida (Canine and BRD); assay: MIC in broth against Pasteurella multocida; assay type: cell-based
Experimental: as §1

[8] = test system: Staphylococcus aureus (including MRSA); settings: S. aureus (Sta-3) ATCC 29213; cited from earlier work
[9] = test system: Bordetella bronchiseptica; assay: MIC in broth against Bordetella bronchiseptica; assay type: cell-based
Experimental: as §1

[10] = test system: Coagulase negative Staphylococcus species; assay: MIC in broth against coagulase negative Staphylococcus species; assay type: cell-based
Experimental: as §1

[11] = test system: Staphylococcus pseudintermedius (including MRSP); assay: MIC in broth against Staphylococcus pseudintermedius (including MRSP); assay type: cell-based; parameters: unit not given beside the values
Experimental: as §1

## CC[C@H]1OC(=O)[C@H](C)[C@@H](O[C@H]2C[C@@](C)(OC)[C@@H](O)[C@H](C)O2)[C@H](C)[C@@H](O[C@@H]2O[C@H](C)C[C@H](N(C)C)[C@H]2O)[C@](C)(O)C[C@@H](C)C(=O)[C@H](C)[C@@H](O)[C@]1(C)O [Ery, Erythromycin]
[1]; Staphylococcus aureus, ATCC 29213 / MRSA, S. aureus (Sta-3) ATCC 29213
  MIC: 0.5 µg/mL (≈ 0.681 µM)
[1]; strain # 98
  MIC against Staphylococcus aureus including MRSA: 0.25
[1]; strain # 99
  MIC against Staphylococcus aureus including MRSA: 0.25
[1]; strain # 100
  MIC against Staphylococcus aureus including MRSA: 0.25
[1]; strain # 101
  MIC against Staphylococcus aureus including MRSA: 0.25
[1]; strain # 102
  MIC against Staphylococcus aureus including MRSA: 0.25
[1]; strain # 103
  MIC against Staphylococcus aureus including MRSA: 0.25
[1]; strain # 104
  MIC against Staphylococcus aureus including MRSA: 0.25
[1]; strain # 105
  MIC against Staphylococcus aureus including MRSA: 0.25
[1]; strain # 106
  MIC against Staphylococcus aureus including MRSA: 0.25
[1]; strain # 107
  MIC against Staphylococcus aureus including MRSA: 0.25
[1]; strain # 108
  MIC against Staphylococcus aureus including MRSA: >8
[1]; strain # 109
  MIC against Staphylococcus aureus including MRSA: 1
[1]; strain # 110
  MIC against Staphylococcus aureus including MRSA: >8
[1]; strain # 111
  MIC against Staphylococcus aureus including MRSA: >8
[1]; strain # 112
  MIC against Staphylococcus aureus including MRSA: 0.5
[1]; strain # 113
  MIC against Staphylococcus aureus including MRSA: >8
[1]; strain # 114
  MIC against Staphylococcus aureus including MRSA: >8
[1]; strain # 115
  MIC against Staphylococcus aureus including MRSA: >8
[1]; strain # 116
  MIC against Staphylococcus aureus including MRSA: >8
[1]; strain # 117
  MIC against Staphylococcus aureus including MRSA: >8
[1]; strain # 118
  MIC against Staphylococcus aureus including MRSA: >8
[1]; strain # 119
  MIC against Staphylococcus aureus including MRSA: >8
[1]; strain # 120
  MIC against Staphylococcus aureus including MRSA: >8
[1]; strain # 121
  MIC against Staphylococcus aureus including MRSA: >8
[1]; strain # 122
  MIC against Staphylococcus aureus including MRSA: >8
[1]; strain # 123
  MIC against Staphylococcus aureus including MRSA: >8
[1]; strain # 124
  MIC against Staphylococcus aureus including MRSA: >8
[1]; strain # 125
  MIC against Staphylococcus aureus including MRSA: >8
[1]; strain # 126
  MIC against Staphylococcus aureus including MRSA: >8
[1]; strain # 127
  MIC against Staphylococcus aureus including MRSA: >8
[2]; H. somni (H-15) ATTC 700025, read-out: MIC
  MIC: 1 µg/mL (≈ 1.36 µM)
[2]; isolates # 238-240, 243, 246 (BRD), read-out: MIC against Histophilus somni
  MIC: > 8 µg/mL
[2]; isolates # 241, 247 (BRD), read-out: MIC against Histophilus somni
  MIC: 0.5 µg/mL (≈ 0.681 µM)
[2]; isolates # 242, 244, 245 (BRD), read-out: MIC against Histophilus somni
  MIC: 1 µg/mL (≈ 1.36 µM)
[3]; isolate # 68
  MIC against Serratia marcescens: >8
[3]; isolate # 69
  MIC against Serratia marcescens: >8
[3]; isolate # 70
  MIC against Serratia marcescens: >8
[3]; isolate # 71
  MIC against Serratia marcescens: >8
[3]; isolate # 72
  MIC against Serratia marcescens: >8
[3]; isolate # 73
  MIC against Serratia marcescens: >8
[3]; isolate # 74
  MIC against Serratia marcescens: >8
[3]; isolate # 75
  MIC against Serratia marcescens: >8
[3]; isolate # 76
  MIC against Serratia marcescens: >8
[3]; isolate # 77
  MIC against Serratia marcescens: >8
[4]; isolate # 158
  MIC: 4 µg/mL (≈ 5.45 µM)
[4]; isolate # 159
  MIC: > 8 µg/mL
[4]; isolate # 160
  MIC: 4 µg/mL (≈ 5.45 µM)
[4]; isolate # 161
  MIC: > 8 µg/mL
[4]; isolate # 162
  MIC: 2 µg/mL (≈ 2.73 µM)
[4]; isolate # 163
  MIC: 4 µg/mL (≈ 5.45 µM)
[4]; isolate # 164
  MIC: > 8 µg/mL
[4]; isolate # 165
  MIC: > 8 µg/mL
[4]; isolate # 166
  MIC: 1 µg/mL (≈ 1.36 µM)
[4]; isolate # 167
  MIC: 4 µg/mL (≈ 5.45 µM)
[5]
  Known range (MIC): 1 to 4 µg/mL
[6]; isolate # 218
  MIC: 0.06 µg/mL (≈ 0.0818 µM)
[6]; isolate # 219
  MIC: 0.5 µg/mL (≈ 0.681 µM)
[6]; isolate # 220
  MIC: 0.06 µg/mL (≈ 0.0818 µM)
[6]; isolate # 221
  MIC: 1 µg/mL (≈ 1.36 µM)
[6]; isolate # 222
  MIC: 0.06 µg/mL (≈ 0.0818 µM)
[6]; isolate # 223
  MIC: 0.06 µg/mL (≈ 0.0818 µM)
[6]; isolate # 224
  MIC: 0.06 µg/mL (≈ 0.0818 µM)
[6]; isolate # 225
  MIC: 2 µg/mL (≈ 2.73 µM)
[6]; isolate # 226
  MIC: 0.06 µg/mL (≈ 0.0818 µM)
[6]; isolate # 227
  MIC: 2 µg/mL (≈ 2.73 µM)
[7]; strain # 168
  MIC against Pasteurella multocida: 0.5
[7]; strain # 169
  MIC against Pasteurella multocida: 1
[7]; strain # 170
  MIC against Pasteurella multocida: 1
[7]; strain # 171
  MIC against Pasteurella multocida: 0.5
[7]; strain # 172
  MIC against Pasteurella multocida: 1
[7]; strain # 173
  MIC against Pasteurella multocida: 2
[7]; strain # 174
  MIC against Pasteurella multocida: 8
[7]; strain # 175
  MIC against Pasteurella multocida: 1
[7]; strain # 176
  MIC against Pasteurella multocida: 0.5
[7]; strain # 177
  MIC against Pasteurella multocida: 2
[7]; strain # 178
  MIC against Pasteurella multocida: 4
[7]; strain # 179
  MIC against Pasteurella multocida: 2
[7]; strain # 180
  MIC against Pasteurella multocida: 2
[7]; strain # 181
  MIC against Pasteurella multocida: 2
[7]; strain # 182
  MIC against Pasteurella multocida: 2
[7]; strain # 183
  MIC against Pasteurella multocida: >8
[7]; strain # 184
  MIC against Pasteurella multocida: 2
[7]; strain # 185
  MIC against Pasteurella multocida: >8
[7]; strain # 186
  MIC against Pasteurella multocida: 2
[7]; strain # 187
  MIC against Pasteurella multocida: >8
[8]
  Known range (MIC): 0.25 to 1 µg/mL
[9]; isolate # 78 (canine/feline)
  MIC: 8 µg/mL (≈ 10.9 µM)
[9]; isolate # 79 (canine/feline)
  MIC: 8 µg/mL (≈ 10.9 µM)
[9]; isolate # 80 (canine/feline)
  MIC: 2 µg/mL (≈ 2.73 µM)
[9]; isolate # 81 (canine/feline)
  MIC: 8 µg/mL (≈ 10.9 µM)
[9]; isolate # 82 (canine/feline)
  MIC: 2 µg/mL (≈ 2.73 µM)
[9]; isolate # 83 (canine/feline)
  MIC: 8 µg/mL (≈ 10.9 µM)
[9]; isolate # 84 (canine/feline)
  MIC: 8 µg/mL (≈ 10.9 µM)
[9]; isolate # 85 (canine/feline)
  MIC: > 8 µg/mL
[9]; isolate # 86 (canine/feline)
  MIC: > 8 µg/mL
[9]; isolate # 87 (canine/feline)
  MIC: 8 µg/mL (≈ 10.9 µM)
[10]; isolate # 148
  MIC: 0.12 µg/mL (≈ 0.164 µM)
[10]; isolate # 149
  MIC: 0.12 µg/mL (≈ 0.164 µM)
[10]; isolate # 150
  MIC: 0.25 µg/mL (≈ 0.341 µM)
[10]; isolate # 151
  MIC: 0.25 µg/mL (≈ 0.341 µM)
[10]; isolate # 152
  MIC: 0.25 µg/mL (≈ 0.341 µM)
[10]; isolate # 153
  MIC: 0.5 µg/mL (≈ 0.681 µM)
[10]; isolate # 154
  MIC: 0.5 µg/mL (≈ 0.681 µM)
[10]; isolate # 155
  MIC: 0.25 µg/mL (≈ 0.341 µM)
[10]; isolate # 156
  MIC: 0.25 µg/mL (≈ 0.341 µM)
[10]; isolate # 157
  MIC: 0.12 µg/mL (≈ 0.164 µM)
[11]; isolate # 128
  MIC against Staphylococcus pseudintermedius (+ MSRP): 0.25
[11]; isolate # 129
  MIC against Staphylococcus pseudintermedius (+ MSRP): 0.25
[11]; isolate # 130
  MIC against Staphylococcus pseudintermedius (+ MSRP): 0.25
[11]; isolate # 131
  MIC against Staphylococcus pseudintermedius (+ MSRP): 0.25
[11]; isolate # 132
  MIC against Staphylococcus pseudintermedius (+ MSRP): 0.25
[11]; isolate # 133
  MIC against Staphylococcus pseudintermedius (+ MSRP): 0.25
[11]; isolate # 134
  MIC against Staphylococcus pseudintermedius (+ MSRP): 0.25
[11]; isolate # 135
  MIC against Staphylococcus pseudintermedius (+ MSRP): 0.12
[11]; isolate # 136
  MIC against Staphylococcus pseudintermedius (+ MSRP): 0.25
[11]; isolate # 137
  MIC against Staphylococcus pseudintermedius (+ MSRP): 0.12
[11]; isolate # 138
  MIC against Staphylococcus pseudintermedius (+ MSRP): >8
[11]; isolate # 139
  MIC against Staphylococcus pseudintermedius (+ MSRP): 0.25
[11]; isolate # 140
  MIC against Staphylococcus pseudintermedius (+ MSRP): >8
[11]; isolate # 141
  MIC against Staphylococcus pseudintermedius (+ MSRP): >8
[11]; isolate # 142
  MIC against Staphylococcus pseudintermedius (+ MSRP): >8
[11]; isolate # 143
  MIC against Staphylococcus pseudintermedius (+ MSRP): >8
[11]; isolate # 144
  MIC against Staphylococcus pseudintermedius (+ MSRP): >8
[11]; isolate # 145
  MIC against Staphylococcus pseudintermedius (+ MSRP): >8
[11]; isolate # 146
  MIC against Staphylococcus pseudintermedius (+ MSRP): >8
[11]; isolate # 147
  MIC against Staphylococcus pseudintermedius (+ MSRP): >8
